This is an account of results in patent US8173144B2, “Administration of urea compounds for combating signs of cutaneous aging” (L'Oreal, priority 2004, dated 2012).

The experiment has as its system acid proteases of the SC (stratum corneum). The experiment in a line: Activation of acid proteases of the stratum corneum (Enzchek fluorimetry, Bodipy FL casein substrate). The format is biochemical. Here is the method: The property of activating certain acid proteases of the SC (stratum corneum) is evaluated. This activity is measured by virtue of a quantitative determination by fluorimetry using the Enzchek kit (Molecular Probes). This protocol uses a Bodipy FL casein substrate which releases fluorescence when it is hydrolyzed. The fluorescence released is directly proportional to the protease activity. It is read directly in a 96-well plate with a spectrofluorimeter at 750 V at 485 nm in excitation and 535 nm in emission.
The molecules are prepared at 0, 1, 2 and 4M in a 0.1M; pH 5.0; acetate buffer.
An enzyme extract is prepared from acetone powders.
2 ml of PBS buffer+0.1% of Triton X100 are brought into contact for 1 h in crushed ice with 200 mg of stratum corneum acetone powders. The mixture is subsequently ground in a Potter homogenizer and then centrifuged at 15 000 g for 10 min at 4° C. The supernatant is collected. The Enzchek substrate, diluted to 1/200, is incorporated in each solution comprising the molecules. The assays are repeated three times.
The reaction mixture is prepared directly in a white plate.
10 μl of enzyme extract are added to 200 μl of solution comprising the substrate at 0, 1, 2 or 4M. The readings are carried out at t0, t 2h, t 16h and t 24h.

[1] abbreviates: 1 and 2M in 0.1M acetate buffer pH 5.0, readings t0, t 2h, t 16h, t 24h.

As to `NC(=O)NCCO` [N-(2-hydroxethyl)urea, N-(2-hydroxyethyl)urea], the “acid protease activity (fluorescence) with respect to the control” value reads like this: under setting [1], “significant increase in the activity”; (4M in 0.1M acetate buffer pH 5.0, whatever the time studied) “marked decrease in the activity”.
`NC(N)=O` [Urea, urea]: the “acid protease activity (fluorescence) with respect to the control” value under setting [1] is listed as “slightly activating effect on the acid proteases up to two hours”.
